The values that follow come from ChEMBL document CHEMBL3507680, “University of Dundee, Gates Library screen for HepG2 cell viability”.

SMILES strings stand for the structures.

The nature of the data set: Human HepG2 cell viability assay in 384 well format. The format is toxicity, cell-based. More on the design: dose 125 nL, time 70.5 hour; concentration not given beside the values. As to conditions: HepG2 cells, read-out: Inhibition.
With `O=C(CC1CCCN1S(=O)(=O)N1CCCCC1)c1cccs1` (centres undefined), the cytotoxicity at 70.5 h is -3.32%.
Regarding `CSc1ccc(CNCCS(=O)(=O)N2CCOCC2)cc1`, the cytotoxicity at 70.5 h was -3.35%.
The value for `CCN1CCC(NC(=O)CN2CCCC2Cn2cccn2)CC1` (centres undefined) was 32.9%.
For the molecule `O=C(CN1CCCC1Cn1cccn1)NC1CCN(C2CC2)CC1` (centres undefined), the cytotoxicity at 70.5 h was -2.29%.
In the case of `COCCn1cc(C(=O)N2CCCC2c2cnn(C)c2)ccc1=O` (centres undefined), the cytotoxicity at 70.5 h is -6.63%.
With `Cc1ccccc1-c1noc(CN2CCC(c3ccn[nH]3)CC2)n1`, the cytotoxicity at 70.5 h was found to be 30.9%.
The value for `c1cnn(CC2CN(Cc3csc(-c4ccsc4)n3)CCO2)c1` (centres undefined) was -6.82%; that for `COC(C)c1nc(CN2CCNCC2)cs1` (centres undefined) was 0.111%; that for `CCOC(C)c1nc(CN2CCN(c3ncc(C)cn3)CC2)cs1` (centres undefined) was -5.09%.
The value for `COCc1noc(C2(c3cccc(Cl)c3)CCOCC2)n1` was 26.5%; that for `Cc1ccc(S(=O)(=O)N2CCC(N3CCCCC3)CC2)cc1C` was 5.06%.
The figure for `CCNC(=O)COc1ccc(C(=O)NC(C)CCc2ccco2)cc1` (centres undefined) is 2.41%; for `CC1CCN(CCCNC(=O)Nc2cc3c(cc2Br)OCCO3)CC1` it is -0.325%; for `Cc1csc(CNC(=O)NCC(O)c2ccccc2)n1` (centres undefined) it is -4.81%.
For `Cc1ccc(NC(=O)NCC2(N3CCOCC3)CCSC2)c(C)c1` (centres undefined), the cytotoxicity at 70.5 h is 8.25%.
The value for `NC(=O)COc1ccc(C(=O)NCCc2ccco2)cc1` was -5.22%.
The figure for `Cc1ccc(C(=O)CN2C(=O)c3ccccc3CS2(=O)=O)c(C)c1` is -10.2%; for `O=C(NCc1nnc2n1CCCCC2)N(Cc1ccncc1)C1CC1` it is -4.16%.
Regarding `C=C(C)CN1CCC(NC(=O)NCCc2ccc(N(C)C)cc2)CC1`, the cytotoxicity at 70.5 h was 12.7%.
Turning to `Cn1cc(CNC(=O)NCCOc2ccc(F)c(F)c2)cn1`, the cytotoxicity at 70.5 h was -0.0625%.
In the case of `N#Cc1cc(NC(=O)c2cc[nH]n2)ccc1N1CCC(O)CC1`, the cytotoxicity at 70.5 h turned out to be 9.29%.
For the molecule `COc1cc(C)ccc1OCC(=O)NS(=O)(=O)c1cc(F)ccc1F`, the cytotoxicity at 70.5 h is -4.22%.
In the case of `Fc1ccc(OCC2CCCO2)c(NCc2cn3cccnc3n2)c1` (centres undefined), the cytotoxicity at 70.5 h amounted to 8.09%.
In the case of `COCc1noc(C2(c3ccc(F)cc3)CCC2)n1`, the cytotoxicity at 70.5 h is -0.0433%.
As for `Cc1ccc(S(=O)(=O)N2CCCCC(N3CCN(C)CC3)C2)cc1F` (centres undefined), the cytotoxicity at 70.5 h was -5.17%.
`CN(Cc1cnn(C)c1)Cc1nc(Cc2cccc(Cl)c2)no1`: the cytotoxicity at 70.5 h was -7.96%.
The figure for `COCCSCC(=O)NC1(c2cccc(Br)c2)CC1` is -2.67%.
The figure for `Cc1cc(C(=O)NCc2ccccc2CN(C)Cc2ccco2)on1` is 9.59%; for `CCN1CCN(c2ccc(F)cc2C(C)NCc2ccccn2)CC1` (centres undefined) it is 13.7%.
The figure for `COc1ccc(OC)c(C(C)NC(=O)Nc2nnc(C)s2)c1` (centres undefined) is -5.29%; for `COc1ccc(C(C)NC(=O)Nc2nnc(C)s2)c(OC)c1` (centres undefined) it is -4.87%; for `CC(C)(C)OC(=O)NCCNC(=O)c1cnc(-c2ccccc2)nc1` it is -0.668%.
Regarding `CN(C)C(=O)CCNC(=O)c1cnc(-c2ccccc2)nc1`, the cytotoxicity at 70.5 h was -5.51%.
For the molecule `CC1CN(C(=O)c2ccn(C)c(=O)c2)c2ccccc2NC1=O` (centres undefined), the cytotoxicity at 70.5 h is -2.71%.
The value for `CN(CCc1nccs1)C(=O)C1(C#N)CCCCC1` was 0.343%.
For `Cc1cc(F)ccc1N1CCCC(NC2CCSCC2)C1=O` (centres undefined), the cytotoxicity at 70.5 h was -2.24%.
`O=C(NCCC1CCN(CC(F)(F)F)CC1)C1CCCO1` (centres undefined): the cytotoxicity at 70.5 h is -1.77%.
Consider `CCS(=O)(=O)NC1CCCN(c2ccc(F)cc2C)C1=O` (centres undefined), for which the cytotoxicity at 70.5 h was -3.11%.
The value for `CN(CC(=O)N(CCC#N)c1ccccc1)C1CCc2ccccc21` (centres undefined) was 5.13%; that for `Cc1ccc(CCC(C)NC2CCN(C(N)=O)CC2)cc1` (centres undefined) was -1.06%.
The figure for `Oc1ccc(N(CCc2ccccc2)CCn2cncn2)cc1` is 7.13%.
Turning to `CC(C)(C)CN(CCC#N)Cn1cc(Cl)cn1`, the cytotoxicity at 70.5 h was -3.15%.
The figure for `CCc1nc(C2CCCN(c3ncccn3)C2)no1` (centres undefined) is -2.54%; for `COC(=O)c1ccccc1NS(=O)(=O)c1c(C)nn(C)c1C` it is -6.21%; for `Cn1cc(CCNC(=O)C2(c3cccc(Cl)c3)CC2)cn1` it is -18.4%.
The value for `CCCOC1CCCN(C(=O)c2csc(S(N)(=O)=O)c2)C1` (centres undefined) was 9.57%.
The value for `O=C(NCCCn1ccnc1)Nc1ccn(CCc2ccccn2)n1` was -5.67%.
In the case of `CCN1CCOC(CNc2nccc(C(F)(F)F)n2)C1` (centres undefined), the cytotoxicity at 70.5 h is -6.79%.
For `CCN(C(=O)c1ccc2nncn2c1)C(C)Cc1ccc(OC)cc1` (centres undefined), the cytotoxicity at 70.5 h was -5.25%.
The figure for `c1cnn(C2CN(CCCOc3ccc4c(c3)OCO4)C2)c1` is 11.1%.
The figure for `COCCCn1ccc(NC(=O)NCCn2ccnc2)n1` is -8.92%; for `OC(COc1ccc2c(c1)OCO2)CN1CC(n2cccn2)C1` (centres undefined) it is -3.37%; for `CN(C)c1ccc(CCCNC(=O)NCC(O)c2cccs2)cc1` (centres undefined) it is -8.37%.
The figure for `CCOc1ccc(OC2CCCN(c3cnn(C)c3)C2=O)cc1` (centres undefined) is 10.6%.
Turning to `Cc1noc(-c2ccnc(N3CCCN(C4CCOCC4)CC3)c2)n1`, the cytotoxicity at 70.5 h was -3.75%.
The figure for `Cn1cc(CCCNC(=O)NCC(O)c2ccsc2)cn1` (centres undefined) is -2.64%.
Take `CS(=O)(=O)Cc1ccc(NC(=O)c2cccnc2)cc1F`: the cytotoxicity at 70.5 h is -6.22%.
The value for `CC(C)(C)n1ncc2c(=O)[nH]c(NC3CC=CC3)nc21` was 0.3%; that for `CC(C)Cn1cc(NC(=O)NCC2CCN(c3ccccc3)C2)cn1` (centres undefined) was -0.00229%; that for `CCOC1CCCN(C(=O)c2[nH]nc(C)c2Br)C1` (centres undefined) was -11.5%.
The figure for `CCOC(C)C(=O)Nc1ccc(Sc2nncn2C)c(Cl)c1` (centres undefined) is -4.37%; for `CCN1CCOC(CNc2nccc(OC)n2)C1` (centres undefined) it is -5.64%.
For the molecule `CC(C)COC(C)C(=O)N1CCCC1` (centres undefined), the cytotoxicity at 70.5 h is -7.16%.
With `CCc1nc(C2CCCN(c3nccc(C)n3)C2)no1` (centres undefined), the cytotoxicity at 70.5 h was -12.5%.
Consider `O=C(NCCCO)Nc1ccccc1`, for which the cytotoxicity at 70.5 h amounted to 3.04%.
For the molecule `O=S1(=O)CCC(CNS(=O)(=O)N2CCc3ccccc3C2)C1` (centres undefined), the cytotoxicity at 70.5 h was determined as 1.82%.
The value for `COc1ccc(NC(=O)CSC(F)(F)F)cn1` was 9.73%.
The figure for `Cc1nc(C(C)(C)C)sc1C(=O)NCCn1ccnc1` is -7.91%.
Turning to `O=C(NCCNc1ncccn1)c1scnc1Cl`, the cytotoxicity at 70.5 h worked out at 9.91%.
In the case of `Cc1nc(C(C)C)sc1C(=O)NCCn1ccnc1`, the cytotoxicity at 70.5 h was -7.02%.
The figure for `CC(C)(C)CCNC(=O)c1ccc(Cl)c(NS(C)(=O)=O)c1` is 8.13%; for `O=C(NCCCO)Nc1cccc(I)c1` it is -5.84%; for `O=C(C[S+]([O-])Cc1cccc(F)c1)NC1CCCC1` (centres undefined) it is 0.67%.
The value for `COc1ccc(-c2ccc(C(=O)NCCCC(N)=O)c(F)c2)c(F)c1` was -3.05%; that for `O=C(NCCCO)Nc1cccc(C[S+]([O-])Cc2ccccc2)c1` (centres undefined) was -4.46%.
With `Cc1cccc(C(C)(C)NC(=O)CCS(C)(=O)=O)c1`, the cytotoxicity at 70.5 h is -3.08%.
The figure for `COc1ccc(-c2ccc(C(=O)NS(C)(=O)=O)c(F)c2)cc1` is -5.82%; for `CCN(C)S(=O)(=O)NCC1(c2cccc(Br)c2)CC1` it is -1.33%; for `O=C1CCC(=O)N1CCN1CCC(=Cc2ccccc2)CC1` it is -0.346%.
The figure for `Cc1nn(C)c(C)c1NC(=O)CNc1cc(C(F)(F)F)ccc1F` is 25%.
The value for `CSc1ccc(NCC(=O)Nc2c(C)nn(C)c2C)cc1F` was -4.28%; that for `CNC(=O)CN1CCCC1c1ccccc1Br` (centres undefined) was -6.18%.
In the case of `CNC(=O)NC(=O)CN1CCN(CC(F)(F)F)CC1(C)C`, the cytotoxicity at 70.5 h was -4.26%.
On to `CC1(C)CN(CC(F)(F)F)CCN1CC(=O)N1CCCCC1`, for which the cytotoxicity at 70.5 h was 11.7%.
The figure for `Cc1nn(C)c(C)c1CCC(=O)OCC(=O)N1CCc2sccc2C1` is 20.5%.
The value for `O=S(=O)(NCc1cccnc1OC1CCCC1)N1CCOCC1` was -10.2%.
Take `N#CCCN1CCC(=Cc2ccccc2)CC1`: the cytotoxicity at 70.5 h was -6.02%.
For the molecule `O=S(=O)(NCc1cccnc1OC1CCCC1)N1CCCCC1`, the cytotoxicity at 70.5 h amounted to 0.259%.
On to `CCCc1nc(C)c(C(=O)NCCn2ccnc2)s1`, for which the cytotoxicity at 70.5 h was -7.16%.
The value for `Cc1cc(C)n(CCC(=O)OCC(=O)N2CCc3sccc3C2)n1` was -4.48%.
Consider `CC1(C)CN(CC(F)(F)F)CCN1CC(=O)NC1CCCC1`, for which the cytotoxicity at 70.5 h was -4.28%.
The figure for `CCc1nonc1NC(=O)C(C)Oc1ccccc1F` (centres undefined) is -10.4%.
The figure for `CCC(NCc1nccn1C)c1nc(C(F)(F)F)cs1` (centres undefined) is -0.765%.
The value for `Cc1cccc2c(CCNC(=O)NCCC[S+](C)[O-])c[nH]c12` (centres undefined) was -1.72%; that for `CC(C#N)(NC(=O)COc1ccccc1Br)C1CC1` (centres undefined) was 8.66%; that for `Cc1nn(C)c(C)c1CC(=O)NCc1cccnc1OC1CCCC1` was -3.95%.
`Cc1nn(C)c(C)c1C(=O)NCc1cccnc1OC1CCCC1`: the cytotoxicity at 70.5 h is -5.73%.
Take `COc1ccc(Cl)cc1-c1cc(NC(=O)C2COCCO2)[nH]n1` (centres undefined): the cytotoxicity at 70.5 h was -4.84%.
As for `CC(C(=O)Nc1ncccn1)N1CCC(n2ccnc2)CC1` (centres undefined), the cytotoxicity at 70.5 h was -4.52%.
The figure for `Cc1cccc(C2(O)CCN(C(=O)c3ccccn3)CC2)c1C` is 1.09%; for `CS(=O)(=O)NCc1ccc(NC(=O)CC2=CCCCC2)cc1` it is -0.966%; for `COc1ccc(CN2CCC(C(N)=O)CC2)cc1SC(F)(F)F` it is 5.97%.
The figure for `Cc1cc(C(C)(O)CNC(=O)C2(C)CCCC2)c(C)o1` (centres undefined) is -0.0569%; for `Cc1ccc2c(c1)OCCCC2NC1CCN(C)CC1` (centres undefined) it is -0.243%.
